According to US11006595B2, “Rice cultivar designated ‘CL153’” (Board of Supervisors of Louisiana State University and …, priority 2016, dated 2021):

Tested on: ‘CL153’ rice plant
Assay: Herbicide tolerance and susceptibility of rice cultivar 'CL153'
Type: in vivo, Oryza sativa
Conditions: for resistance or sensitivity of ‘CL153’ to the herbicide: at levels of the herbicide that would normally inhibit the growth of a rice plant, partly actual observations, partly assumptions based on common ancestry with ‘CL161’; for resistance of ‘CL153’ to imidazolinone herbicides: general statement, profile essentially identical to ‘CL161’
Text: Among others, the herbicide tolerance and susceptibility characteristics of ‘CL153’ include or are expected to include the following.

SMILES	resistance or sensitivity of ‘CL153’ to the herbicide	resistance of ‘CL153’ to imidazolinone herbicides
COC(=O)c1ccccc1S(=O)(=O)NC(=O)N(C)c1nc(C)nc(OC)n1 [tribenuron methyl]	resistant	–
CCS(=O)(=O)c1cccnc1S(=O)(=O)NC(=O)Nc1nc(OC)cc(OC)n1 [rimsulfuron]	sensitive	–
CC(C)C1(C)N=C(c2ncccc2C(=O)O)NC1=O (centres unmarked) [imazapyr]	resistant	–
CCOC(=O)c1ccccc1S(=O)(=O)NC(=O)Nc1nc(Cl)cc(OC)n1 [chlorimuron ethyl]	sensitive	–
COC(=O)c1sccc1S(=O)(=O)NC(=O)Nc1nc(C)nc(OC)n1 [thifensulfuron methyl]	resistant	–
COCc1cnc(C2=NC(C)(C(C)C)C(=O)N2)c(C(=O)O)c1 (centres unmarked) [imazamox]	resistant	highly resistant
COc1cc(OC)nc(NC(=O)NS(=O)(=O)c2ncccc2C(=O)N(C)C)n1 [nicosulfuron]	resistant	–
COC(=O)c1ccccc1S(=O)(=O)NC(=O)Nc1nc(C)cc(C)n1 [sulfometuron methyl]	sensitive	–
CCc1cnc(C2=NC(C)(C(C)C)C(=O)N2)c(C(=O)O)c1 (centres unmarked) [imazethapyr]	resistant	highly resistant
COC(=O)c1ccccc1S(=O)(=O)NC(=O)Nc1nc(C)nc(OC)n1 [metsulfuron methyl]	resistant	–
Cc1cnc(C2=NC(=O)C(C)(C(C)C)N2)c(C(=O)O)c1 (centres unmarked) [imazapic]	resistant	–
CC(C)C1(C)N=C(c2nc3ccccc3cc2C(=O)O)NC1=O (centres unmarked) [imazaquin]	resistant	–
